31 compounds from ChEMBL document CHEMBL3804813, “Discovery and optimization of new benzofuran derivatives against p53-independent malignant cancer cells through inhibition of HIF-1 pathway” (Bioorg Med Chem Lett, 2016) can be followed below.

Active and inactive are the calls of the source. No cut-off for these calls is given here. Some results are limits rather than exact numbers.

Test [1] is described as follows: Antiproliferative activity against human HCT116 cells expressing wild type p53 assessed as growth inhibition after 72 hrs by MTT assay. Type of test: functional, cell-based. Particulars: HCT-116, 72 h. A general note: Tetrazolium assays rely on reduction of a dye to a coloured formazan, in cell work by metabolically active cells.
Test [2] is described as follows: Antiproliferative activity against human p53-null HCT116 cells assessed as growth inhibition after 72 hrs by MTT assay. Format: functional, cell-based. Particulars: HCT-116, 72 h.
Another test relates to MCF7. The experiment in a line: Antiproliferative activity against human MCF7 cells assessed as growth inhibition after 72 hrs by MTT assay. Format: functional, cell-based. Particulars: MCF7, 72 h.
Test [3] is described as follows: Antiproliferative activity against human MDA-MB-435S cells assessed as growth inhibition after 72 hrs by MTT assay. Format: functional, cell-based.
In test [4] the target is Hypoxia-inducible factor 1-alpha (Homo sapiens) (UniProt Q16665). The test is described as follows: Inhibition of HIF-1 (unknown origin) expressed in human MCF7 cells co-transfected with hypoxia reporter plasmid p(HRE)3-Luc at 20 uM measured under hypoxia condition after 24 hrs by dual-luciferase reporter assay. Type of test: cell-based.
A short description of test [5]: Decrease in procaspase-3 expression level in human p53-null HCT116 -/- cells at 10 uM after 24 hrs by western blot analysis. Format: functional, cell-based. Particulars: HCT-116.
A short description of test [6]: Decrease in procaspase-9 expression level in human p53-null HCT116 -/- cells at 10 uM after 24 hrs by western blot analysis. Format: functional, cell-based. The following applies: HCT-116. For orientation: Immunoblotting shows a protein as a band on a membrane.

Sequence of Hypoxia-inducible factor 1-alpha (Homo sapiens) (Q16665 whole entry, looked up): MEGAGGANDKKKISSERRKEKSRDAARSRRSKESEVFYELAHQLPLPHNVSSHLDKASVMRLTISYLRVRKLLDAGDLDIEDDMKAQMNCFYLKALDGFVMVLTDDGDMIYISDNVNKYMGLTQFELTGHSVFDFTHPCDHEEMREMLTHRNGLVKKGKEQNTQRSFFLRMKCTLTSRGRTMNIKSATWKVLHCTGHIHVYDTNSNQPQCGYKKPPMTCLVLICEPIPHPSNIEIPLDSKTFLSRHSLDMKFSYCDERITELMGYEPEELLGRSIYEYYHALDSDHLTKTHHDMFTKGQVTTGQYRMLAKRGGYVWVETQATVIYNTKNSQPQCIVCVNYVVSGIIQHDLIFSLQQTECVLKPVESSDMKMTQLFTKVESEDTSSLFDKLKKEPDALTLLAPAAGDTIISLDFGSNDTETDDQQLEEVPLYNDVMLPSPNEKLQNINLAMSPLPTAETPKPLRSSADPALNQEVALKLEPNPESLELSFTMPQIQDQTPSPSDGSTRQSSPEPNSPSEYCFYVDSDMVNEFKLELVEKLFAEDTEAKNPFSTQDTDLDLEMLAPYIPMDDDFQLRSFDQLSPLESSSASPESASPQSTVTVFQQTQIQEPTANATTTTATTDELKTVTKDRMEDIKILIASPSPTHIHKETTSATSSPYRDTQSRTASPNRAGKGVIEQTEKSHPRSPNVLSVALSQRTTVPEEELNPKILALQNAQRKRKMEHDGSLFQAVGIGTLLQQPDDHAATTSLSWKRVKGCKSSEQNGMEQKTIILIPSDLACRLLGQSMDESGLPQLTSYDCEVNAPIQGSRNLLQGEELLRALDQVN

As to `CCOC(=O)c1oc2ccc(N(CC3CCCCC3)S(=O)(=O)c3ccc(Cl)cc3)cc2c1C`, the results for the IC50 in test [1] and in test [2] were 14.1 µM and > 40 µM, respectively.
Consider `Cc1c(C(=O)O)oc2ccc(N(Cc3ccc(Cl)cc3)S(=O)(=O)c3ccc(Cl)cc3)cc12`, for which the IC50 in test [1] was 3.67 µM; in test [2] it was 27.2 µM.
`COc1ccc(C2=N[C@@H](c3ccc(Cl)cc3)[C@@H](c3ccc(Cl)cc3)N2C(=O)N2CCNC(=O)C2)c(OC(C)C)c1` [NUTLIN-3]: the IC50 in test [1] is 5.21 µM; in test [2] it was 21.5 µM; in the test with MCF7, 5.01 µM; in test [3], 29.6 µM. Moreover, the inhibition in test [4] is < 10%. Further, the inhibition result in test [5] and in test [6] was “inactive” each time.
For the compound `CCOC(=O)c1oc2ccc(NS(=O)(=O)c3ccc(Br)cc3)cc2c1C`, the IC50 in test [1] was 9.31 µM; in test [2], > 40 µM.
For `CCOC(=O)c1oc2ccc(N(Cc3ccccc3)S(=O)(=O)c3ccc(C)cc3)cc2c1C` the same measures were > 40 µM and > 40 µM.
`CCOC(=O)c1oc2ccc(N(Cc3ccccc3)S(=O)(=O)c3ccccc3)cc2c1C`: the IC50 in test [1] and in test [2] was > 40 µM each time.
Consider `CCOC(=O)c1oc2ccc(N(Cc3ccccc3)S(=O)(=O)c3ccc(Br)cc3)cc2c1C`, for which the IC50 in test [1] came out at 9.46 µM; in test [2] it was 8.7 µM.
Regarding `CCOC(=O)c1oc2ccc(N(Cc3ccccc3)S(=O)(=O)c3ccc(Cl)cc3)cc2c1C`, the figures for the IC50 in test [1] and in test [2] were 4.86 µM and 23.2 µM, respectively.
As for `Cc1c(C(=O)O)oc2ccc(N(Cc3ccc(Br)cc3)S(=O)(=O)c3ccc(Br)cc3)cc12`, the figures for the IC50 in test [1] and in test [2] were 8.58 µM and > 40 µM, respectively.
The matching figures for `Cc1c(C(=O)O)oc2ccc(N(Cc3ccccc3)S(=O)(=O)c3ccc(Cl)cc3)cc12`: 9.13 µM and 33.4 µM.
Turning to `CCOC(=O)c1oc2ccc(N(Cc3ccccc3)S(=O)(=O)c3ccccc3Br)cc2c1C`, the IC50 in test [1] and in test [2] was > 40 µM each time.
For `CCOC(=O)c1oc2ccc(N(Cc3ccccc3)S(=O)(=O)c3ccc(F)cc3)cc2c1C`, the values for the IC50 in test [1] and in test [2] were 5.82 µM and 33.1 µM, respectively.
On to `CCOC(=O)c1oc2ccc(N(Cc3ccccc3)S(=O)(=O)c3cccc(Br)c3)cc2c1C`, for which the half-inhibitory concentration (IC50) in test [1] and in test [2] was > 40 µM throughout.
In the case of `CCOC(=O)c1oc2ccc(NS(=O)(=O)c3ccc(C(F)(F)F)cc3)cc2c1C`, the IC50 in test [1] was 5.03 µM; in test [2] it was 24.2 µM.
For `CCOC(=O)c1oc2ccc(N(Cc3ccc(Cl)cc3)S(=O)(=O)c3ccc(Cl)cc3)cc2c1C`, the results for the IC50 in test [1] and in test [2] were 9.48 µM and 9.64 µM, respectively.
Consider `Cc1c(C(=O)NCCN(C)C)oc2ccc(N(Cc3ccc(Cl)cc3)S(=O)(=O)c3ccc(Cl)cc3)cc12`, for which the IC50 is 5.38 µM in test [1], 3.87 µM in test [2], 5.84 µM in the test with MCF7 and 10.8 µM in test [3]. Further, the inhibition in test [4] came to 12.7%.
Take `Cc1c(C(=O)O)oc2ccc(N(Cc3ccccc3)S(=O)(=O)c3ccc(F)cc3)cc12`: the IC50 in test [1] and in test [2] was > 40 µM in each case.
With `Cc1c(C(=O)NCCN(C)C)oc2ccc(N(Cc3ccccc3)S(=O)(=O)c3ccc(Cl)cc3)cc12`, the IC50 in test [1] came to 7.06 µM; in test [2], 6.31 µM; in the test on MCF7, 6.72 µM; in test [3] it was 9.24 µM. In test [4], the inhibition is < 10%.
For the compound `CCOC(=O)c1oc2ccc(N(Cc3ccccc3)S(=O)(=O)c3cccc(Cl)c3)cc2c1C`, the concentration for half-maximal inhibition (IC50) in test [1] and in test [2] was > 40 µM throughout.
For `CCOC(=O)c1oc2ccc(NS(=O)(=O)c3ccc(F)cc3)cc2c1C`, the IC50 is 10.5 µM in test [1] and > 40 µM in test [2].
For `CCOC(=O)c1oc2ccc(N(Cc3ccccc3)S(=O)(=O)c3ccc(OC)cc3)cc2c1C` the same measures were > 40 µM and > 40 µM.
On to `CCOC(=O)c1oc2ccc(N(Cc3ccc(Br)cc3)S(=O)(=O)c3ccc(Br)cc3)cc2c1C`, for which the IC50 in test [1] amounted to 10.9 µM; in test [2] it was 5.22 µM.
The matching figures for `CCOC(=O)c1oc2ccc(N(Cc3ccccc3)S(=O)(=O)c3ccc([N+](=O)[O-])cc3)cc2c1C`: > 40 µM and > 40 µM.
As for `Cc1c(C(=O)O)oc2ccc(N(Cc3ccccc3)S(=O)(=O)c3ccc(Br)cc3)cc12`, the IC50 in test [1] turned out to be 7.09 µM; in test [2], 20 µM.
On to `CCOC(=O)c1oc2ccc(N(Cc3ccccc3)S(=O)(=O)c3ccc(C(F)(F)F)cc3)cc2c1C`, for which the values for the half-inhibitory concentration (IC50) in test [1] and in test [2] were 26.7 µM and 12.7 µM, respectively.
For `CCOC(=O)c1oc2ccc(N(C(C)C)S(=O)(=O)c3ccc(Cl)cc3)cc2c1C`, the IC50 is 7.83 µM in test [1] and > 40 µM in test [2].
Consider `Cc1c(C(=O)NCCCn2ccnc2)oc2ccc(N(Cc3ccc(Cl)cc3)S(=O)(=O)c3ccc(Cl)cc3)cc12`, for which the IC50 in test [1] was 2.43 µM; in test [2], 1.89 µM; with MCF7, > 40 µM; in test [3], 7.25 µM. Also, in test [4], the inhibition was found to be 27%.
For the compound `COc1ccc(N(Cc2ccccc2)S(=O)(=O)c2ccc(Cl)cc2)cc1`, the half-inhibitory concentration (IC50) in test [1] was 18.3 µM; in test [2] it was > 40 µM.
Consider `Cc1c(C(=O)O)oc2ccc(N(Cc3ccccc3)S(=O)(=O)c3ccc(C(F)(F)F)cc3)cc12`, for which the results for the IC50 in test [1] and in test [2] were 4.13 µM and 21.1 µM, respectively.
Turning to `Cc1c(C(=O)NCCCn2ccnc2)oc2ccc(N(Cc3ccccc3)S(=O)(=O)c3ccc(Cl)cc3)cc12`, the 50% inhibitory concentration (IC50) in test [1] was 17.1 µM; in test [2], 5 µM; with MCF7 it was 31.8 µM; in test [3], 5.6 µM. In test [4], this compound gave an inhibition of 32.3%.
Turning to `CCOC(=O)c1oc2ccc(NS(=O)(=O)c3ccc(Cl)cc3)cc2c1C`, the IC50 in test [1] was 24.3 µM; in test [2] it was > 40 µM.

The term IC50 denotes the midpoint of a concentration-inhibition curve. By inhibition is commonly meant the percentage by which the read-out fell short of the control.
